27 molecules from patent US10329289B2, “6,7-dihydro-5H-pyrrolo[3,4-B]pyridin-5-one allosteric modulators of the M4 muscarinic acetylcholine receptor” (Merck Sharp & Dohme Corp., priority 2015, dated 2019) can be followed below.

For the test, the target named is T1, human M4 muscarinic acetylcholine receptor (Homo sapiens, UniProt P08173).
T1 construct: expressed in transfected cells; host or cells: CHO-K1
T1 sequence (P08173 1-479): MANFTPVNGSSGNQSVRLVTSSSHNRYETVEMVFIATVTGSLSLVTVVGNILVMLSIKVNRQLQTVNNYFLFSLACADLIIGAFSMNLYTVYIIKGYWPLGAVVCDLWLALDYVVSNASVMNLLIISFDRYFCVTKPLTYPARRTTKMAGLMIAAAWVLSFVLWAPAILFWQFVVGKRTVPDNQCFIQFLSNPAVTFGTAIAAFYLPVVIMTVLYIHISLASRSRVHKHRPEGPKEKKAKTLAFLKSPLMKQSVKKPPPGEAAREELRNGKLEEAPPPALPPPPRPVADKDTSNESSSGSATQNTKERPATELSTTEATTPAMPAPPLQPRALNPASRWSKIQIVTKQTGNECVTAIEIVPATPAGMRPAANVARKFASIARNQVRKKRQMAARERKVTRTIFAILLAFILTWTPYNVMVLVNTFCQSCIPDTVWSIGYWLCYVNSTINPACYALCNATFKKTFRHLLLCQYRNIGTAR
The experiment in a line: human FLIPR-based M4 PAM assay (Ca2+ mobilization, CHO-K1 cells with human M4 receptor and Gαqi5). Type of test: cell-based. The following applies: acetylcholine at 20% of maximum response, read-out: M4 PAM IP. The protocol: In a typical experiment the M4 muscarinic acetylcholine receptor modulating activity of the compounds of the present invention was determined in accordance with the following experimental method. CHO-K1 cells stably transfected with human M4 receptor and chimeric G-protein Gαqi5 (Coward P, et al., Analytical Biochemistry, 270:242-248 (1999)) are thawed from liquid N2 storage, resuspended in growth medium, plated in black, clear bottom 384 well plates, and incubated 16-20 hours at 37° C., 5% CO2. On the day of assay, growth medium is removed, the cells are washed 2 times with wash buffer, and cells are incubated in dye loading buffer at 37° C., 5% CO2 for ˜1 hour. […] Next, 10 uL of acetylcholine is added (final concentration calculated so as to achieve 20% of the maximum acetycholine response), and the fluorescence reading is continued for 3.5 min. In some cases, a third addition of acetylcholine (final concentration calculated to achieve 70% of the maximal acetylcholine response) is performed. The resulting dose response curves are fit to a 4 parameter logistic equation and the final result is determined as the inflection point (IP) of the curve
CHO-K1 cells stably transfected with human M4 receptor and chimeric G-protein Gαqi5 are thawed from liquid N2 storage, resuspended in growth medium, plated in black, clear bottom 384 well plates, and incubated 16-20 hours at 37° C., 5% CO2.
On the day of assay, growth medium is removed, the cells are washed 2 times with wash buffer, and cells are incubated in dye loading buffer at 37° C., 5% CO2 for ˜1 h. […] Next, 10 uL of acetylcholine is added (final concentration calculated so as to achieve 20% of the maximum acetycholine response), and the fluorescence reading is continued for 3.5 min. In some cases, a third addition of acetylcholine (final concentration calculated to achieve 70% of the maximal acetylcholine response) is performed.
In general terms: A change in cytosolic calcium serves as a functional read-out for many receptors and channels.
For the molecule `Cc1cc2c(nc1N1CCC(OCC34CC(C3)C4)CC1)CNC2=O` [Example 187, 2-(4-(bicyclo[1.1.1]pentan-1-ylmethoxy)piperidin-1-yl)-3-methyl-6,7-dihydro-5H-pyrrolo[3,4-b]pyridin-5-one], the EC50 is 223 nM.

For `COC(=O)c1c(C)c(N2CCC(Oc3ccc4c(c3)COC4)CC2)nc2c1C(=O)NC2` [Example 212, methyl 2-(4-((1,3-dihydro-2-benzofuran-5-yl)oxy)piperidin-1-yl)-3-methyl-5-oxo-6,7-dihydro-5H-pyrrolo[3,4-b]pyridine-4-carboxylate], the EC50 amounted to 1830 nM.

`Cc1c(N2CC[C@@H](Oc3ccc4c(cnn4C)c3)[C@@H](F)C2)nc2c(c1C)C(=O)N(CCO)C2` [Example 268E, 2-((3S,4R)-3-fluoro-4-((1-methyl-1H-indazol-5-yl)oxy)piperidin-1-yl)-6-(2-hydroxyethyl)-3,4-dimethyl-6,7-dihydro-5H-pyrrolo[3,4-b]pyridin-5-one]: the EC50 stood at 68 nM.

With `COc1ccc(OC2CCN(c3nc4c(c(CF)c3C)C(=O)NC4)CC2)cn1` [Example 305, 4-(fluoromethyl)-2-(4-((6-methoxypyridin-3-yl)oxy)piperidin-1-yl)-3-methyl-6,7-dihydro-5H-pyrrolo[3,4-b]pyridin-5-one], the EC50 is 241 nM.

For `Cc1cc2c(nc1N1CCC(Oc3cnc4c(c3)oc(=O)n4C)CC1)CNC2=O` [Example 136, 3-methyl-6-((1-(3-methyl-5-oxo-6,7-dihydro-5H-pyrrolo[3,4-b]pyridin-2-yl)piperidin-4-yl)oxy)oxazolo[4,5-b]pyridin-2(3H)-one], the EC50 stood at 3470 nM.

For the molecule `Cc1cc2c(nc1N1CCC(Oc3ccc4ccc(=O)[nH]c4c3)CC1)CNC2=O` [Example 128, 7-((1-(3-methyl-5-oxo-6,7-dihydro-5H-pyrrolo[3,4-b]pyridin-2-yl)piperidin-4-yl)oxy)quinolin-2(1H)-one], the EC50 came out at 2370 nM.

On to `COCCn1cc(OC2CCN(c3nc4c(cc3C)C(=O)NC4)CC2)cn1` [Example 312A, 2-(4-((1-(2-methoxyethyl)-1H-pyrazol-4-yl)oxy)piperidin-1-yl)-3-methyl-6,7-dihydro-5H-pyrrolo[3,4-b]pyridin-5-one], for which the EC50 is 2510 nM.

`Cc1cc2c(nc1N1CCC(Oc3ccnc(CO)c3)CC1)CNC2=O` [Example 152, 2-(4-((2-(hydroxymethyl)pyridin-4-yl)oxy)piperidin-1-yl)-3-methyl-6,7-dihydro-5H-pyrrolo[3,4-b]pyridin-5-one]: the EC50 came out at 1150 nM.

As for `Cc1cc2c(nc1N1CC[C@@H](Oc3ccc4c(c3)COC4)[C@@H](F)C1)[C@H](CO)N(C)C2=O` [Example 277, (R)-2-((3S,4R)-4-((1,3-dihydro-2-benzofuran-5-yl)oxy)-3-fluoropiperidin-1-yl)-7-(hydroxymethyl)-3,6-dimethyl-6,7-dihydro-5H-pyrrolo[3,4-b]pyridin-5-one], the EC50 was found to be 3400 nM.

Turning to `Cc1cc2c(nc1N1CCC(Oc3ccc4c(c3)COC4)CC1)CNC2=O` [Example 159, 2-[4-(1,3-Dihydro-2-benzofuran-5-yloxy)piperidin-1-yl]-3-methyl-6,7-dihydro-5H-pyrrolo[3,4-b]pyridin-5-one], the EC50 was found to be 28 nM.

`CCN1Cc2nc(N3CCC(Oc4ccccc4)CC3)c(C)cc2C1=O` [Example 243, 6-ethyl-3-methyl-2-(4-phenoxypiperidin-1-yl)-6,7-dihydro-5H-pyrrolo[3,4-b]pyridin-5-one]: the EC50 came to 73 nM.

With `Cc1cc2c(nc1N1CCC(Oc3ccc(F)cc3)CC1)CNC2=O` [Example 72, 2-(4-(4-fluorophenoxy)piperidin-1-yl)-3-methyl-6,7-dihydro-5H-pyrrolo[3,4-b]pyridin-5-one], the EC50 stood at 30 nM.

As for `Cc1cc2c(nc1N1CCC(Oc3ccc4c(c3)nc(C)n4C)CC1)CNC2=O` [Example 209, 2-(4-((1,2-dimethyl-1H-benzo[d]imidazol-5-yl)oxy)piperidin-1-yl)-3-methyl-6,7-dihydro-5H-pyrrolo[3,4-b]pyridin-5-one], the EC50 came out at 2650 nM.

For `Cc1c(N2CCC(OCC3(C)CC3)CC2)nc2c(c1C)C(=O)N(CCO)C2` [Example 267, 6-(2-hydroxyethyl)-3,4-dimethyl-2-(4-((1-methylcyclopropyl)methoxy)piperidin-1-yl)-6,7-dihydro-5H-pyrrolo[3,4-b]pyridin-5-one], the EC50 was determined as 34 nM.

As to `CO[C@H]1Cc2ccc(OC3CCN(c4nc5c(cc4C)C(=O)NC5)CC3)cc2C1` [Example 162B, (S)-2-(4-((2-methoxy-2,3-dihydro-1H-inden-5-yl)oxy)piperidin-1-yl)-3-methyl-6,7-dihydro-5H-pyrrolo[3,4-b]pyridin-5-one], the EC50 was found to be 47 nM.

Regarding `Cc1cc2c(nc1N1CCC(Oc3ccc4c(c3)COC4)CC1)CN(CC(C)O)C2=O` (single isomer, unassigned) [Example 238A, (R) or (S)-2-(4-((1,3-dihydro-2-benzofuran-5-yl)oxy)piperidin-1-yl)-6-(2-hydroxypropyl)-3-methyl-6,7-dihydro-5H-pyrrolo[3,4-b]pyridin-5-one], the EC50 is 87 nM.

`Cc1cncc(OC2CCN(c3nc4c(cc3C)C(=O)NC4)CC2)c1` [Example 66, 3-Methyl-2-(4-((5-methylpyridin-3-yl)oxy)piperidin-1-yl)-6,7-dihydro-5H-pyrrolo[3,4-b]pyridin-5-one]: the EC50 came to 84 nM.

On to `Cc1cc2c(nc1N1CCC(Oc3ccc(C#N)nc3)CC1)CNC2=O` [Example 85, 5-((1-(3-methyl-5-oxo-6,7-dihydro-5H-pyrrolo[3,4-b]pyridin-2-yl)piperidin-4-yl)oxy)picolinonitrile], for which the EC50 came out at 2620 nM.

Turning to `CO[C@@H]1Cc2ccc(OC3CCN(c4nc5c(c(C)c4C)C(=O)NC5)CC3)cc2C1` [Example 335A, (R)-2-(4-((2-methoxy-2,3-dihydro-1H-inden-5-yl)oxy)piperidin-1-yl)-3,4-dimethyl-6,7-dihydro-5H-pyrrolo[3,4-b]pyridin-5-one], the EC50 is 245 nM.

In the case of `COc1ccc(OC2CCN(c3nc4c(cc3C)C(=O)N[C@H]4CO)CC2)cn1` (single isomer, unassigned) [Example 271A], the EC50 came out at 941 nM.

In the case of `CCN1C(=O)c2c(nc(N3CCC(Oc4ccc5c(c4)COC5)CC3)c(C)c2C)[C@H]1CO` [Example 351A, (S)-2-(4-((1,3-dihydroisobenzofuran-5-yl)oxy)piperidin-1-yl)-6-ethyl-7-(hydroxymethyl)-3,4-dimethyl-6,7-dihydro-5H-pyrrolo[3,4-b]pyridin-5-one], the EC50 came to 19 nM.

On to `Cc1c(N2CCC(Oc3ccc4c(c3)CCOC4)CC2)nc2c(c1C)C(=O)N(C)[C@@H]2CO` [Example 369, (S)-7-(hydroxymethyl)-2-(4-(isochroman-6-yloxy)piperidin-1-yl)-3,4,6-trimethyl-6,7-dihydro-5H-pyrrolo[3,4-b]pyridin-5-one], for which the EC50 came to 57 nM.

In the case of `Cc1cc2c(nc1N1CCC(Oc3cccc(F)c3)CC1)CNC2=O` [Example 71], the EC50 stood at 42 nM.

Turning to `Cc1cc2c(nc1N1CCC(OCC3(C)CC3)CC1)CNC2=O` [Example 176, 3-methyl-2-(4-((1-methylcyclopropyl)meth-oxy)piperidin-1-yl)-6,7-dihydro-5H-pyrrolo[3,4-b]pyridin-5-one], the EC50 was found to be 39 nM.

As to `Cc1ccc(OC2CCN(c3nc4c(cc3C)C(=O)NC4)CC2)cc1` [Example 83, 3-methyl-2-(4-(p-tolyloxy)piperidin-1-yl)-6,7-dihydro-5H-pyrrolo[3,4-b]pyridin-5-one], the EC50 is 48 nM.

In the case of `Cc1c(N2CCC(Oc3ccc4c(cnn4C)c3)CC2)nc2c(c1C)C(=O)N(CCO)C2` [Example 265D, 6-(2-hydroxyethyl)-3,4-dimethyl-2-(4-((1-methyl-1H-indazol-5-yl)oxy)piperidin-1-yl)-6,7-dihydro-5H-pyrrolo[3,4-b]pyridin-5-one], the EC50 came out at 65 nM.

For the molecule `Cc1cc2c(nc1N1CCC(Oc3ccccc3)CC1)[C@H](CO)N(C)C2=O` [Example 275, (R)-7-(hydroxymethyl)-3,6-dimethyl-2-(4-phenoxypiperidin-1-yl)-6,7-dihydro-5H-pyrrolo[3,4-b]pyridin-5-one], the EC50 came out at 3970 nM.
